Laboratory results: patent US20250129430A1, “HIGH ATP-AFFINITY PROTEIN AS THERAPEUTIC TARGET FOR INTRACTABLE CANCER MOLECULAR SUBTYPES AND INHIBITOR THEREOF” (VeraVerse Co., Ltd., priority 2021, published 2025)

Tests used:
Test in all cases: Cell viability drug screen, 12-point dose-response AUC
Assay type in all cases: cell-based, human
[1] = system: AGS; settings: AGS cells (non-SEM subtype); 72 hours
Method in brief: (§1)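 Each cell line receives a twelve-point half-log titration of drug beginning 24 h after plating 5×10^3 cells per well. Following 72 h culture at 37 °C, luminescent signal is recorded and expressed versus vehicle. AUC is derived by the trapezoidal method.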

[2] = system: Hs746T; settings: Hs746T cells (SEM subtype); 72 hours
Method in brief: (§2)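 Luminescent viability readings, taken 15 min after reagent addition at room temperature, were normalized to the 0.5% DMSO control to build 12-point dose-response curves. Trapezoidal integration gave the AUC. Cells had been plated at 5×10^3 per well and then exposed to half-log dilutions for 72 h.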

[3] = system: KATO3; settings: KATO3 cells; 72 hours
Method in brief: as §2

[4] = system: MKN1; settings: MKN1 cells; 72 hours
Method in brief: as §2

[5] = system: MKN28; settings: MKN28 cells; 72 hours
Method in brief: as §2

[6] = system: MKN45; settings: MKN45 cells (non-SEM subtype); 72 hours
Method in brief: as §1

[7] = system: MKN74; settings: MKN74 cells; 72 hours
Method in brief: as §1

[8] = system: NCC19; settings: NCC19 cells; 72 hours
Method in brief: as §2

[9] = system: NCC20; settings: NCC20 cells; 72 hours
Method in brief: as §2

[10] = system: NCC24; settings: NCC24 cells; 72 hours
Method in brief: as §2

[11] = system: NCC59; settings: NCC59 cells; 72 hours
Method in brief: as §2

[12] = system: NCI_N87; settings: NCI_N87 cells; 72 hours
Method in brief: as §2

[13] = system: OCUM1; settings: OCUM1 cells; 72 hours
Method in brief: as §2

[14] = system: SK4; settings: SK4 cells (SEM subtype); 72 hours
Method in brief: as §2

[15] = system: SNU16; settings: SNU16 cells; 72 hours
Method in brief: as §2

[16] = system: SNU1750; settings: SNU1750 cells (SEM subtype); 72 hours
Method in brief: as §2

[17] = system: SNU1967; settings: SNU1967 cells; 72 hours
Method in brief: as §2

[18] = system: SNU1; settings: SNU1 cells; 72 hours
Method in brief: as §2

[19] = system: SNU216; settings: SNU216 cells (non-SEM subtype); 72 hours
Method in brief: as §1

[20] = system: SNU484; settings: SNU484 cells (SEM subtype); 72 hours
Method in brief: as §2

[21] = system: SNU601; settings: SNU601 cells; 72 hours
Method in brief: as §2

[22] = system: SNU620; settings: SNU620 cells; 72 hours
Method in brief: as §2

[23] = system: SNU638; settings: SNU638 cells; 72 hours
Method in brief: as §2

[24] = system: SNU668; settings: SNU668 cells (SEM subtype); 72 hours
Method in brief: as §2

[25] = system: SNU719; settings: SNU719 cells; 72 hours
Method in brief: as §1

[26] = system: YCC11; settings: YCC11 cells (SEM subtype); 72 hours
Method in brief: as §2

[27] = system: YCC2; settings: YCC2 cells; 72 hours
Method in brief: as §2

[28] = system: YCC3; settings: YCC3 cells; 72 hours
Method in brief: as §2

[29] = system: FU97; set-up: Average Area Under the Viability Curve (AUC), AUC norm value: scale not given here; settings: FU97 cells; 72 hours
Method in brief: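 Trapezoidal AUC of a 12-point, DMSO-normalized dose-response curve. Luminescent viability was measured after 72 h of exposure at 37° C to half-log serial dilutions (0.5% DMSO control), dosed 24 h after plating FU97 cells at 5×10^3 per well.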

Row | Compound | Average Area Under the Viability Curve (AUC), AUC norm value [1] | Average Area Under the Viability Curve (AUC), AUC norm value [2] | Average Area Under the Viability Curve (AUC), AUC norm value [3] | Average Area Under the Viability Curve (AUC), AUC norm value [4] | Average Area Under the Viability Curve (AUC), AUC norm value [5] | Average Area Under the Viability Curve (AUC), AUC norm value [6] | Average Area Under the Viability Curve (AUC), AUC norm value [7] | Average Area Under the Viability Curve (AUC), AUC norm value [8] | Average Area Under the Viability Curve (AUC), AUC norm value [9] | Average Area Under the Viability Curve (AUC), AUC norm value [10] | Average Area Under the Viability Curve (AUC), AUC norm value [11] | Average Area Under the Viability Curve (AUC), AUC norm value [12] | Average Area Under the Viability Curve (AUC), AUC norm value [13] | Average Area Under the Viability Curve (AUC), AUC norm value [14] | Average Area Under the Viability Curve (AUC), AUC norm value [15] | Average Area Under the Viability Curve (AUC), AUC norm value [16] | Average Area Under the Viability Curve (AUC), AUC norm value [17] | Average Area Under the Viability Curve (AUC), AUC norm value [18] | Average Area Under the Viability Curve (AUC), AUC norm value [19] | Average Area Under the Viability Curve (AUC), AUC norm value [20] | further results
1 | CC[C@@H]1C(=O)N(C)c2cnc(Nc3ccc(C(=O)NC4CCN(C)CC4)cc3OC)nc2N1C1CCCC1 [BI 2536] | −1.22 | 1.951 | 4.704 | −0.2123 | −1.69 | 0.09661 | −0.6584 | 3.475 | 0.5722 | −0.8832 | 3.556 | −1.006 | 2.226 | −1.128 | 0.02031 | −0.8076 | 0.0237 | −1.064 | 2.038 | 0 | Average Area Under the Viability Curve (AUC), AUC norm value [21]: 0.0215; Average Area Under the Viability Curve (AUC), AUC norm value [22]: −1.078; Average Area Under the Viability Curve (AUC), AUC norm value [23]: 0.1863; Average Area Under the Viability Curve (AUC), AUC norm value [24]: −0.4211; Average Area Under the Viability Curve (AUC), AUC norm value [25]: 3.291; Average Area Under the Viability Curve (AUC), AUC norm value [26]: −0.3817; Average Area Under the Viability Curve (AUC), AUC norm value [27]: −0.1875; Average Area Under the Viability Curve (AUC), AUC norm value [28]: 3.315; Average Area Under the Viability Curve (AUC), AUC norm value [29]: −0.4841
2 | CCOc1cc2ncc(C#N)c(Nc3ccc(OCc4ccccn4)c(Cl)c3)c2cc1NC(=O)/C=C/CN(C)C [Neratinib (HKI-272), Neratinib] | −0.9315 | −0.2204 | 1.505 | −0.4985 | 0.1864 | 3.029 | −1.144 | 2.052 | −1.6785 | 1.205 | 1.9785 | −5.051 | 1.056 | −1.282 | −1.491 | −0.4123 | 0.8381 | 1.038 | −2.1011 | −1.2895 | Average Area Under the Viability Curve (AUC), AUC norm value [21]: 0.802; Average Area Under the Viability Curve (AUC), AUC norm value [22]: 1.117; Average Area Under the Viability Curve (AUC), AUC norm value [23]: 0; Average Area Under the Viability Curve (AUC), AUC norm value [24]: 0.8456; Average Area Under the Viability Curve (AUC), AUC norm value [25]: 1.894; Average Area Under the Viability Curve (AUC), AUC norm value [26]: −1.333; Average Area Under the Viability Curve (AUC), AUC norm value [27]: −0.1749; Average Area Under the Viability Curve (AUC), AUC norm value [28]: 0.3013; Average Area Under the Viability Curve (AUC), AUC norm value [29]: −0.2016
3 | COc1cc(N2CCC(N3CCN(C)CC3)CC2)ccc1Nc1ncc(Cl)c(Nc2ccccc2S(=O)(=O)C(C)C)n1 [TAE684 (NVP-TAE684), TAE684] | −1.326 | 1.039 | 0.2672 | 0 | −0.4177 | 2.601 | −0.04126 | 1.944 | −2.659 | 1.662 | 1.273 | 2.003 | −0.2195 | −0.6572 | −3.18 | −0.941 | −1.412 | −0.1185 | 0.5205 | −0.6182 | Average Area Under the Viability Curve (AUC), AUC norm value [21]: 1.062; Average Area Under the Viability Curve (AUC), AUC norm value [22]: 0.4637; Average Area Under the Viability Curve (AUC), AUC norm value [23]: 0.4071; Average Area Under the Viability Curve (AUC), AUC norm value [24]: 1.009; Average Area Under the Viability Curve (AUC), AUC norm value [25]: 1.051; Average Area Under the Viability Curve (AUC), AUC norm value [26]: −1.4836; Average Area Under the Viability Curve (AUC), AUC norm value [27]: −0.5512; Average Area Under the Viability Curve (AUC), AUC norm value [28]: 1.708; Average Area Under the Viability Curve (AUC), AUC norm value [29]: −1.587
4 | COc1cc([C@@H]2c3cc4c(cc3[C@@H](O[C@@H]3O[C@@H]5CO[C@@H](c6cccs6)O[C@H]5[C@H](O)[C@H]3O)[C@H]3COC(=O)[C@H]23)OCO4)cc(OC)c1O [Teniposide (Vumon), Teniposide] | −2.042 | 0.6261 | 1.852 | −1.955 | 0.1008 | 1.933 | 0.3993 | 2.415 | −0.8716 | −0.5766 | 1.59 | 2.319 | 1.001 | −0.2681 | −0.8192 | −0.5618 | −0.7519 | −0.3019 | 0.9296 | −1.211 | Average Area Under the Viability Curve (AUC), AUC norm value [21]: −1.094; Average Area Under the Viability Curve (AUC), AUC norm value [22]: 0; Average Area Under the Viability Curve (AUC), AUC norm value [23]: −0.3584; Average Area Under the Viability Curve (AUC), AUC norm value [24]: −0.6175; Average Area Under the Viability Curve (AUC), AUC norm value [25]: 2.899; Average Area Under the Viability Curve (AUC), AUC norm value [26]: −1.342; Average Area Under the Viability Curve (AUC), AUC norm value [27]: 0.249; Average Area Under the Viability Curve (AUC), AUC norm value [28]: 2.1949; Average Area Under the Viability Curve (AUC), AUC norm value [29]: 1.309
